“Also recorded” adds a separate entry of the source. Structures can show the parent of a compound that is named as a salt. Where two headings read alike, the source gives them in different places.
Assays:
Type in all cases: cell-based
[1] = biological target: T1, human recombinant CB2 receptors (Homo sapiens, UniProt P34972); experiment: CB2 agonist effects in a reporter gene assay (CHO-K1 CB2 CRE-LUC cells, inhibition of forskolin response); conditions: 'active except' = excluded from the actives, i.e. not active
T1 construct: expressed in transfected cells; host or cells: CHO-K1 CB2 CRE-LUC cells
Description: CB2 agonist effects were determined using a reporter gene assay. These studies were performed using a CHO-K1 cell line expressing human recombinant CB2 receptors (CHO-K1 CB2 CRE-LUC cells). These cells additionally express a “CRE-LUC” reporter gene construct comprising the gene for luciferase under the control of multiple cAMP response element binding protein promoters. In these cells, increases in intracellular cAMP levels leads to transcription of the luciferase gene and the subsequent production of luciferase. The expression of luciferase is measured by addition to the cells of a proprietary mixture containing luciferin, the substrate for luciferase (Luclite, Perkin Elmer, Cat No 6016919). The resultant reaction leads to the generation of light which is measured in a TopCount scintillation counter. […]
CHO-K1 CB2 CRE-LUC cells were grown in DMEM/F12 plus glutamax I medium (Gibco Cat. No. 31331-028), supplemented with 9% FBS (Gibco, Cat. No. 16000-040) and 0.5 mg·ml^−1 G418 (Gibco, Cat. No. 10131-027) and 0.5 mg·ml^−1 Hygromycin (Invitrogen, Cat. No. 10687-010). […] Finally, luminescence was measured using a Packard TopCount scintillation counter. Data Analysis For each compound maximal inhibition of the forskolin response and the EC50 for this effect was determined. […]

[2] = biological target: T2, human cannabinoid CB2 receptor (Homo sapiens, UniProt P34972); experiment: Cannabinoid CB2 receptor agonist activity in yeast cells expressing the receptor (FDGlu fluorescence); conditions: for CB2 activity at the cloned human cannabinoid CB2 receptor (in words): b47 says only 'the assay used'
T2 construct: expressed in transfected cells; host or cells: Saccharomyces cerevisiae strain MMY23 (Gpa1/Galphai3 chimeric G-protein alpha subunit)
Description: The cannabinoid CB2 receptor agonist activity of compounds of formula (I) was determined in accordance with the following experimental method.
(§1) Yeast (Saccharomyces cerevisiae) cells expressing the human cannabinoid CB2 receptor were generated by integration of an expression cassette into the ura3 chromosomal locus of yeast strain MMY23. This cassette consisted of DNA sequence encoding the human CB2 receptor flanked by the yeast GPD promoter to the 5′ end of CB2 and a yeast transcriptional terminator sequence to the 3′ end of CB2. MMY23 expresses a yeast/mammalian chimeric G-protein alpha subunit in which the C-terminal 5 amino acids of Gpa1 are replaced with the C-terminal 5 amino acids of human Gαi3 (as described in Brown et al. (2000), Yeast 16:11-22). Cells were grown at 30° C. in liquid Synthetic Complete (SC) yeast media (Guthrie and Fink (1991), Methods in Enzymology, Vol. 194) lacking uracil, tryptophan, adenine and leucine to late logarithmic phase (approximately 6 OD600/m).
Agonists were prepared as 10 mM solutions in DMSO. EC50 values (the concentration required to produce 50% maximal response) were estimated using dilutions of between 3- and 5-fold (BiomekFX, Beckman) into DMSO. Agonist solutions in DMSO (1% final assay volume) were transferred into black microtitre plates from NUNC (96- or 384-well). Cells were suspended at a density of 0.2 OD600/ml in SC media lacking histidine, uracil, tryptophan, adenine and leucine and supplemented with 10 mM 3-aminotriazole, 0.1M sodium phosphate pH 7.0, and 20μM fluorescein di-β-D-glucopyranoside(FDGlu). This mixture (50 ul per well) was added to agonist in the assay plates (Multidrop 384, Labsystems). After incubation at 30° C. for 24 hours, fluorescence resulting from degradation of FDGlu to fluorescein due to exoglucanase, an endogenous yeast enzyme produced during agonist-stimulated cell growth, was determined using a fluorescence microtitre plate reader (Tecan Spectrofluor or LJL Analyst excitation wavelength: 485 nm; emission wavelength: 535 nm). Fluorescence was plotted against compound concentration and iteratively curve fitted using a four parameter fit to generate a concentration effect value. Efficacy (Emax) was calculated from the equation Emax=Max[compound X]−Min[compound X]/Max[HU210]−Min[HU210]×100%
(§2) where Max[compound X] and Min[compound X] are the fitted maximum and minimum respectively from the concentration effect curve for compound X, and Max[HU210] and Min[HU210] are the fitted maximum and minimum respectively from the concentration effect curve for (6aR,10aR)-3-(1,1′-Dimethylheptyl)-6a,7,10,10a-tetrahydro-1-hydroxy-6,6-dimethyl-6H-dibenzo[b,d]pyran-9-methanol (HU210; available from Tocris). Equieffective molar ratio (EMR) values were calculated from the equation EMR=EC50 [compound X]/EC50 [HU210]
(§3) Where EC50 [compound X] is the EC50 of compound X and EC50 [HU210] is the EC50 of HU210.

[3] = biological target: T3, human cannabinoid CB1 receptor (Homo sapiens, UniProt P21554); experiment: Cannabinoid CB1 receptor agonist activity in yeast cells expressing the receptor (FDGlu fluorescence); conditions: yeast assay, individual values of the exceptions; for EC50: read-out: EC50 at the cloned human cannabinoid CB1 receptor; for Emax: relative to HU210, read-out: efficacy (Emax) at the cloned human cannabinoid CB1 receptor
T3 construct: expressed in transfected cells; host or cells: Saccharomyces cerevisiae strain MMY23 (Gpa1/Galphai3 chimeric G-protein alpha subunit)
Description: The cannabinoid CB1 receptor agonist activity of compounds of formula (I) was determined in accordance with the following experimental method.
as §1, with “CB1” for “CB2”, “CB1.” for “CB2.”, “OD600/ml).” for “OD600/m).”
Agonists were prepared as 10 mM stocks in DMSO. EC50 values (the concentration required to produce 50% maximal response) were estimated using dilutions of between 3- and 5-fold (BiomekFX, Beckman) into DMSO. Agonist solutions in DMSO (1% final assay volume) were transferred into black, clear bottom, microtitre plates from NUNC (96- or 384-well). Cells were suspended at a density of 0.2 OD600/ml in SC media lacking histidine, uracil, tryptophan, adenine and leucine and supplemented with 10 mM 3-aminotriazole, 0.1M sodium phosphate pH 7.0, and 20 μM fluorescein di-β-D-glucopyranoside (FDGlu). This mixture (50 ul per well for 384-well plates, 200 ul per well for 96-well plates) was added to agonist in the assay plates (Multidrop 384, Labsystems). After incubation at 30° C. for 24 hours, fluorescence resulting from degradation of FDGlu to fluorescein due to exoglucanase, an endogenous yeast enzyme produced during agonist-stimulated cell growth, was determined using a Spectrofluor microtitre plate reader (Tecan; excitation wavelength: 485 nm; emission wavelength: 535 nm). Fluorescence was plotted against compound concentration and iteratively curve fitted using a four parameter fit to generate a concentration effect value. Efficacy (Emax) was calculated from the equation Emax=Max[compound X]−Min[compound X]/Max[HU210]−Min[HU210]×100%
as §2, §3

T3 sequence (P21554 whole entry): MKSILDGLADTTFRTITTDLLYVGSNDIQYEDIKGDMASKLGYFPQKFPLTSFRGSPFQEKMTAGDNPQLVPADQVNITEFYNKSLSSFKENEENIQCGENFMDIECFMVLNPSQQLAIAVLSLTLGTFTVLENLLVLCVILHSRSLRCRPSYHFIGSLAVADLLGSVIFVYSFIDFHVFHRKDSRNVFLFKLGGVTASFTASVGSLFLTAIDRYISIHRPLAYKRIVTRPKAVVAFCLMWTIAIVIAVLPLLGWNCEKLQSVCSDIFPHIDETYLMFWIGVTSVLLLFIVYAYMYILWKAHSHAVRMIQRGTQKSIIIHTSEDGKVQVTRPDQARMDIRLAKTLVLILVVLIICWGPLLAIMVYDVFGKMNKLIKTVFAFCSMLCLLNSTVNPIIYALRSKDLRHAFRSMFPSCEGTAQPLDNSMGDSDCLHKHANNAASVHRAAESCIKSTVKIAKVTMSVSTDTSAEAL
T2 sequence (P34972 whole entry): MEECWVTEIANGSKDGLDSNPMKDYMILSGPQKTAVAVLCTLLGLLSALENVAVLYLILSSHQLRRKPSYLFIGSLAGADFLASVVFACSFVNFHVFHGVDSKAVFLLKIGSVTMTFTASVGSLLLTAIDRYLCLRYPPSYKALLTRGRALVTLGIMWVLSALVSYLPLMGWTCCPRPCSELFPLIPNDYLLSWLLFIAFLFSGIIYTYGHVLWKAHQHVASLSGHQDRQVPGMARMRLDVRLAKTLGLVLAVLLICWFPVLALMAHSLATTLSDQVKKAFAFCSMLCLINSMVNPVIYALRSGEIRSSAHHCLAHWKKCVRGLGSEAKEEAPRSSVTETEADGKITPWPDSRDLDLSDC
T1 sequence (P34972 whole entry): as above

Row | SMILES | EC50 [2] [nM] | EC50 [3] [nM] | Emax [3] [%] | further results
1 | Cc1c[nH]c2c(N3CCOCC3)ncc(C(=O)NC3CCOCC3)c12.Cl [Example 22, 3-methyl-7-morpholin-4-yl-1H-pyrrolo[2,3-c]pyridine-4-carboxylic acid (tetrahydro-pyran-4-yl)-amide] | – | – | – | CB2 agonist activity in reporter gene assay (in words) [1]: active except; CB2 activity at the cloned human cannabinoid CB2 receptor (in words) ([2]; yeast assay): inactive; also recorded: did not appear to have CB2 activity
2 | Cc1c[nH]c2c(N3CCOCC3)ncc(C(=O)NCC3CCOCC3)c12.Cl [Example 23, 3-methyl-7-morpholin-4-yl-1H-pyrrolo[2,3-c]pyridine-4-carboxylic acid (tetrahydro-pyran-4-ylmethyl)-amide] | – | – | – | CB2 agonist activity in reporter gene assay (in words) [1]: active except; CB2 activity at the cloned human cannabinoid CB2 receptor (in words) ([2]; yeast assay): inactive; also recorded: did not appear to have CB2 activity
3 | CN(c1cccc(Cl)c1)c1ncc(C(=O)NCC2CCC2)c2c1ccn2C [Example 67, 4-[(3-Chloro-phenyl)-methyl-amino]-1-methyl-1H-pyrrolo[3,2-c]pyridine-7-carboxylic acid cyclobutylmethyl amide hydrochloride] | 300 to 1000 | – | – | –
4 | COc1ccccc1Nc1ncc(C(=O)N2CCOCC2)c2c(C)c[nH]c12 [Example 72, 1-[7-(2-Methoxy-phenylamino)-3-methyl-1H-pyrrolo[2,3-c]pyridin-4-yl]-1-morpholin-4-yl-methanone hydrochloride salt] | 300 to 1000 | – | – | –
5 | Cn1ccc2c(Nc3cc(Cl)cc(Cl)c3)ncc(C(=O)N3CCOCC3)c21 [Example 124, N-(3,5-Dichlorophenyl)-1-methyl-7-(4-morpholinylcarbonyl)-1H-pyrrolo[3,2-c]pyridin-4-amine hydrochloride] | – | 508 | 75 | –
6 | Cn1ccc2c(Nc3ccc(C#N)c(Cl)c3)ncc(C(=O)N3CCOCC3)c21 [Example 130, 2-Chloro-4-{[1-methyl-7-(4-morpholinylcarbonyl)-1H-pyrrolo[3,2-c]pyridin-4-yl]amino}benzonitrile hydrochloride] | – | 897 | 30 | –
7 | Cn1ccc2c(Nc3ccc(C#N)c(Br)c3)ncc(C(=O)N3CCOCC3)c21 [Example 162, 2-Bromo-4-{[1-methyl-7-(4-morpholinylcarbonyl)-1H-pyrrolo[3,2-c]pyridin-4-yl]amino}benzonitrile hydrochloride] | – | 801 | 33 | –
8 | Cc1cc(F)ccc1Nc1ncc(C(=O)N2CCOCC2)c2c1ccn2C [Example 183, N-(4-Fluoro-2-methylphenyl)-1-methyl-7-(4-morpholinylcarbonyl)-1H-pyrrolo[3,2-c]pyridin-4-amine hydrochloride] | – | – | – | EC50 ([2]; yeast assay, read-out: EC50 at the cloned human cannabinoid CB2 receptor): 300 to 1000 nM
9 | Cc1ccc(Nc2ncc(C(=O)N3CCOCC3)c3c2ccn3C)c(C)c1 [Example 184, N-(2,4-Dimethylphenyl)-1-methyl-7-(4-morpholinylcarbonyl)-1H-pyrrolo[3,2-c]pyridin-4-amine hydrochloride] | 300 to 1000 | – | – | –
10 | Cn1ccc2c(Nc3cccc(Cl)c3)ncc(C(=O)N3CCSCC3)c21 [Example 237, N-(3-Chlorophenyl)-1-methyl-7-(4-thiomorpholinylcarbonyl)-1H-pyrrolo[3,2-c]pyridin-4-amine] | – | 738 | 92 | –

Source: patent US7589206B2, “Pyrrolopyridine derivatives” (Glaxo Group Limited, priority 2004, dated 2009)
